Source: US20210198277A1, “AMINE-SUBSTITUTED ARYL OR HETEROARYL COMPOUNDS” (Epizyme, Inc., priority 2016, published 2021)

Biological target: T1, human EHMT2 913-1193 (Homo sapiens, UniProt Q96KQ7)
T1 construct: recombinant purified human EHMT2 913-1193, Viva; purchased Viva
T1 sequence (Q96KQ7 913-1193): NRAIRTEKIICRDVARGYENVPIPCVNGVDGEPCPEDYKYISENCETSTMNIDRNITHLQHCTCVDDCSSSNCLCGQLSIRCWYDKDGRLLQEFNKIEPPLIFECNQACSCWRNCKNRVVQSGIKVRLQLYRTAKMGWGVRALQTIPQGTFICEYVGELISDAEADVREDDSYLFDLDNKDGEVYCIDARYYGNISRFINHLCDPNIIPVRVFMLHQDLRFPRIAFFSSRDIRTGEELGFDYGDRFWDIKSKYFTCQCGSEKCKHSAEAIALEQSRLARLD
Experiment: EHMT2 enzyme assay on histone peptide substrate (EHMT2 PEP)
Type: biochemical
Conditions: Table II; read-out: EHMT2 PEP (IC50 μM)
Summary of the method: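 Radiometric methyltransferase read-out: ^3H-methyl transfer from ^3H-SAM onto biotinylated histone peptide, captured on streptavidin Flashplates after 60 min reaction at room temperature. Enzyme 0.031 nM, preincubated 30 min with inhibitor; buffer 20 mM Bicine pH 7.5 with 1 mM TCEP; top compound concentration 50 μM final, 2% DMSO.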

| Compound | IC50 |
| --- | --- |
| COc1ccc(Nc2nccc3[nH]ncc23)cc1OCCCN1CCCC1 [Compound 249] | > 10 µM |
| CC(C)Nc1ccnc(Nc2cccc(OCCCN3CC[C@@H](F)C3)c2)n1 [Compound 251] | > 10 µM |
| CNc1ccnc(Nc2cccc(OC[C@H](O)CN3CCCC3)c2)n1 [Compound 252] | 1 to 10 µM |
| CNc1ccnc(Nc2cccc(OC[C@@H](O)CN3CCCC3)c2)n1 [Compound 253] | > 10 µM |

Continued, values first:

| IC50 | Compound |
| --- | --- |
| 1 to 10 µM | CNc1cncc(Nc2ccc(OC)c(OCCCN3CCCC3)c2)n1 [Compound 247] |
| < 0.1 µM | CNc1cc(Nc2cc(OCCCN3CCCC3)c(OC)cn2)ccn1 [Compound 248] |
| 1 to 10 µM | COc1ccc(Nc2ccnc3[nH]ccc23)cc1OCCCN1CCCC1 [Compound 250] |
